Experiments:
Test in all cases: relative viability (nuclei count vs DMSO), 5 days (fraction); higher = more cells survive
COR-L 105 = tested on: COR-L 105
Outline: (§1)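 Relative viability divides the nuclei count in treated wells by that in vehicle wells. Lung cancer cell lines were seeded in 1536-well plates, dosed by pin tool the next day, and fixed and stained after 5 days in one step with final 0.05% Triton X-100, 1% formaldehyde and 1 ug/ml Hoechst. Dosing was a single drug or a fixed anchor-drug dose plus five library-drug doses (not always all listed) in √10 steps, and values are medians of duplicate plates imaged at 4×.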

PC-14 = tested on: PC-14
Outline: as §1

NCI-H1734 = tested on: NCI-H1734
Outline: as §1

NCI-H2228 = tested on: NCI-H2228
Outline: as §1

NCI-H1395 = tested on: NCI-H1395
Outline: as §1

LU99A = tested on: LU99A
Outline: as §1

HCC-366 = tested on: HCC-366
Outline: as §1

NCI-H520 = tested on: NCI-H520
Outline: as §1

NCI-H1666 = tested on: NCI-H1666
Outline: as §1

LC-2-ad = tested on: LC-2-ad
Outline: as §1

PC-3 [JPC-3] = tested on: PC-3 [JPC-3]
Outline: as §1

NCI-H1944 = tested on: NCI-H1944
Outline: as §1

NCI-H838 = tested on: NCI-H838
Outline: as §1

HARA = tested on: HARA
Outline: as §1

NCI-H1975 = tested on: NCI-H1975
Outline: as §1

HCC-15 = tested on: HCC-15
Outline: as §1

NCI-H1993 = tested on: NCI-H1993
Outline: as §1

H3255 = tested on: H3255
Outline: as §1

NCI-H3122 = tested on: NCI-H3122
Outline: as §1

NCI-H661 = tested on: NCI-H661
Outline: as §1

SK-LU-1 = tested on: SK-LU-1
Outline: as §1

CAL-12T = tested on: CAL-12T
Outline: as §1

NCI-H647 = tested on: NCI-H647
Outline: as §1

Work on `O=c1[nH]c2ccccc2n1C1CCN(CCCC(c2ccc(F)cc2)c2ccc(F)cc2)CC1` [Pimozide] + CC(=O)c1c(C)c2cnc(Nc3ccc(N4CCNCC4)cn3)nc2n(C2CCCC2)c1=O [Palbociclib] (partner 0.5 µM) yielded a relative viability (COR-L 105; first compound 0.08 µM) of 0.378, a relative viability (COR-L 105; first compound 0.253 µM) of 0.399 and a relative viability (COR-L 105; first compound 0.8 µM) of 0.409. The relative viability (COR-L 105; first compound 2.53 µM) was 0.426, the relative viability (COR-L 105; first compound 8 µM) was 0.416 and the relative viability (PC-14; first compound 0.253 µM) was 0.579. It also gave a relative viability (PC-14; first compound 0.8 µM) of 0.368, a relative viability (PC-14; first compound 2.53 µM) of 0.219 and a relative viability (PC-14; first compound 8 µM) of 0.178. The relative viability (NCI-H1734; first compound 0.08 µM) was 0.316, the relative viability (NCI-H1734; first compound 0.253 µM) was 0.262 and the relative viability (NCI-H1734; first compound 0.8 µM) was 0.372. For the same molecule, the relative viability (NCI-H1734; first compound 2.53 µM) was 0.347, the relative viability (NCI-H1734; first compound 8 µM) was 0.328 and the relative viability (NCI-H2228; first compound 0.08 µM) was 0.517. The relative viability (NCI-H2228; first compound 0.253 µM) was 0.58, the relative viability (NCI-H2228; first compound 0.8 µM) was 0.606 and the relative viability (NCI-H2228; first compound 2.53 µM) was 0.587. The relative viability (NCI-H2228; first compound 8 µM) was 0.417, the relative viability (NCI-H1395; first compound 0.08 µM) was 0.579 and the relative viability (NCI-H1395; first compound 0.253 µM) was 0.655. For the same molecule, the relative viability (NCI-H1395; first compound 0.8 µM) was 0.538, the relative viability (NCI-H1395; first compound 2.53 µM) was 0.623 and the relative viability (NCI-H1395; first compound 8 µM) was 0.578. For the same molecule, the relative viability (LU99A; first compound 0.08 µM) was 0.407, the relative viability (LU99A; first compound 0.8 µM) was 0.388 and the relative viability (LU99A; first compound 2.53 µM) was 0.421. It also gave a relative viability (LU99A; first compound 8 µM) of 0.41, a relative viability (HCC-366; first compound 0.08 µM) of 0.38 and a relative viability (HCC-366; first compound 0.253 µM) of 0.404. For the same molecule, the relative viability (HCC-366; first compound 0.8 µM) was 0.345, the relative viability (HCC-366; first compound 2.53 µM) was 0.379 and the relative viability (HCC-366; first compound 8 µM) was 0.357. The relative viability (NCI-H520; first compound 0.08 µM) was 0.265, the relative viability (NCI-H520; first compound 0.253 µM) was 0.22 and the relative viability (NCI-H520; first compound 0.8 µM) was 0.191. It also gave a relative viability (NCI-H520; first compound 2.53 µM) of 0.217, a relative viability (NCI-H520; first compound 8 µM) of 0.213 and a relative viability (NCI-H1666; first compound 0.08 µM) of 0.603. For the same molecule, the relative viability (NCI-H1666; first compound 0.253 µM) was 0.653, the relative viability (NCI-H1666; first compound 0.8 µM) was 0.606 and the relative viability (NCI-H1666; first compound 2.53 µM) was 0.715. The relative viability (NCI-H1666; first compound 8 µM) was 0.666, the relative viability (LC-2-ad; first compound 0.08 µM) was 0.517 and the relative viability (LC-2-ad; first compound 0.253 µM) was 0.474. For the same molecule, the relative viability (LC-2-ad; first compound 0.8 µM) was 0.475, the relative viability (LC-2-ad; first compound 2.53 µM) was 0.472 and the relative viability (LC-2-ad; first compound 8 µM) was 0.482. It also gave a relative viability (PC-3 [JPC-3]; first compound 0.253 µM) of 0.551, a relative viability (PC-3 [JPC-3]; first compound 0.8 µM) of 0.481 and a relative viability (PC-3 [JPC-3]; first compound 2.53 µM) of 0.544. It also gave a relative viability (PC-3 [JPC-3]; first compound 8 µM) of 0.509, a relative viability (NCI-H1944; first compound 0.08 µM) of 0.333 and a relative viability (NCI-H1944; first compound 2.53 µM) of 0.253. For the same molecule, the relative viability (NCI-H1944; first compound 8 µM) was 0.334, the relative viability (NCI-H838; first compound 0.08 µM) was 0.252 and the relative viability (NCI-H838; first compound 0.253 µM) was 0.251. The relative viability (NCI-H838; first compound 0.8 µM) was 0.203, the relative viability (NCI-H838; first compound 2.53 µM) was 0.244 and the relative viability (NCI-H838; first compound 8 µM) was 0.215. The relative viability (HARA; first compound 0.08 µM) was 0.278, the relative viability (HARA; first compound 0.253 µM) was 0.263 and the relative viability (HARA; first compound 0.8 µM) was 0.22. For the same molecule, the relative viability (HARA; first compound 2.53 µM) was 0.255, the relative viability (HARA; first compound 8 µM) was 0.178 and the relative viability (NCI-H1975; first compound 0.08 µM) was 0.402. The relative viability (NCI-H1975; first compound 0.253 µM) was 0.515, the relative viability (NCI-H1975; first compound 0.8 µM) was 0.619 and the relative viability (NCI-H1975; first compound 2.53 µM) was 0.593. For the same molecule, the relative viability (NCI-H1975; first compound 8 µM) was 0.494, the relative viability (HCC-15; first compound 0.08 µM) was 0.747 and the relative viability (HCC-15; first compound 0.253 µM) was 0.641. The relative viability (HCC-15; first compound 0.8 µM) was 0.673, the relative viability (HCC-15; first compound 2.53 µM) was 0.652 and the relative viability (HCC-15; first compound 8 µM) was 0.653. For the same molecule, the relative viability (NCI-H1993; first compound 0.08 µM) was 0.616, the relative viability (NCI-H1993; first compound 0.253 µM) was 0.58 and the relative viability (NCI-H1993; first compound 0.8 µM) was 0.653. It also gave a relative viability (NCI-H1993; first compound 2.53 µM) of 0.556, a relative viability (NCI-H1993; first compound 8 µM) of 0.558 and a relative viability (H3255; first compound 0.253 µM) of 0.312. It also gave a relative viability (H3255; first compound 0.8 µM) of 0.299, a relative viability (H3255; first compound 2.53 µM) of 0.307 and a relative viability (H3255; first compound 8 µM) of 0.312. For the same molecule, the relative viability (NCI-H3122; first compound 0.08 µM) was 0.175, the relative viability (NCI-H3122; first compound 0.253 µM) was 0.176 and the relative viability (NCI-H3122; first compound 0.8 µM) was 0.174. The relative viability (NCI-H3122; first compound 2.53 µM) was 0.163, the relative viability (NCI-H3122; first compound 8 µM) was 0.185 and the relative viability (NCI-H661; first compound 0.08 µM) was 0.4. It also gave a relative viability (NCI-H661; first compound 0.253 µM) of 0.412, a relative viability (NCI-H661; first compound 0.8 µM) of 0.367 and a relative viability (NCI-H661; first compound 2.53 µM) of 0.395. It also gave a relative viability (NCI-H661; first compound 8 µM) of 0.327, a relative viability (SK-LU-1; first compound 0.08 µM) of 0.384 and a relative viability (SK-LU-1; first compound 0.253 µM) of 0.533. For the same molecule, the relative viability (SK-LU-1; first compound 0.8 µM) was 0.404, the relative viability (SK-LU-1; first compound 2.53 µM) was 0.377 and the relative viability (SK-LU-1; first compound 8 µM) was 0.348. The relative viability (CAL-12T; first compound 0.08 µM) was 0.473, the relative viability (CAL-12T; first compound 0.253 µM) was 0.416 and the relative viability (CAL-12T; first compound 0.8 µM) was 0.442. For the same molecule, the relative viability (CAL-12T; first compound 2.53 µM) was 0.295, the relative viability (CAL-12T; first compound 8 µM) was 0.269 and the relative viability (NCI-H647; first compound 0.08 µM) was 0.404. It also gave a relative viability (NCI-H647; first compound 0.253 µM) of 0.509, a relative viability (NCI-H647; first compound 0.8 µM) of 0.384 and a relative viability (NCI-H647; first compound 2.53 µM) of 0.32. It also gave a relative viability (NCI-H647; first compound 8 µM) of 0.313.

Reference: the supplement of paper PMC10307832
